{"source": "patent US9187411B2", "about": "“Leukotriene B4 antagonist compound” (Eli Lilly and Company, priority 2012, dated 2015)", "key": {"[1]": {"tested_on": "BCA atherosclerosis lesions in LDLr KO mice", "assay": "LDLr KO mouse brachiocephalic arch atherosclerosis model", "assay_type": "in vivo", "details": "for Lesion area: 4 weeks, vehicle 50,686; for Macrophage area (brown color): vehicle 18,571; for reduction of lesion area compared to vehicle / reduction of BCA cholesteryl ester (CE) content compared to vehicle: Table 3; for Cholesteryl ester: BCA, vehicle 22.50", "protocol": "The compound of Example 2 is tested in the low density lipoprotein (LDL) receptor knock-out (LDLr KO) mouse model of atherosclerosis. Mice deficient in the ability to encode and synthesize the LDL receptor (LDLr KO) are hypercholesterolemic, especially when maintained on high cholesterol diet, Ishibashi et al. J. Clin. Invest. (1994), 93: 1885-1893. In the large arteries, LDLr KO mice develop spontaneous atherosclerotic lesions that mimic major features of the cellular, lipid, and extracellular matrix composition of human lesions. An important constituent of both human and mouse lesions is the lipid-laden macrophage or “foam cell” in the arterial subendothelium. The esterified cholesterol stored by macrophages is a surrogate for lesion development. Assay of esterified cholesterol directly from mouse arterial tissue (by LC/MS) provides a rapid index of lesion burden. The LDLr KO model used in the present study takes advantage of the rapid development of mature atherosclerotic plaques in the brachiocephalic artery (BCA). Primary endpoints for the study are arterial cholesteryl ester content and lesion dimensions obtained by light microscopic measurement of lesions in serial cross-sections of the artery.\nLDLr KO mice (JAX #002207), 7 week old males, were obtained from The Jackson Laboratory (Bar Harbor, Me.). Upon arrival at the testing facility and continuing for a total of 10 weeks, mice were housed individually and fed the atherogenic diet TD.88137 (Teklad) ad libitum. During the first 6 weeks, the mice rested undisturbed in their cages. During the last 4 weeks, the mice received the test compound twice daily by oral gavage."}, "[2]": {"molecular_target": "T1, high-affinity (BLT1) LTB4 receptor (Homo sapiens, UniProt Q15722)", "T1 construct": "expressed in transfected cells", "T1 sequence (Q15722 whole entry)": "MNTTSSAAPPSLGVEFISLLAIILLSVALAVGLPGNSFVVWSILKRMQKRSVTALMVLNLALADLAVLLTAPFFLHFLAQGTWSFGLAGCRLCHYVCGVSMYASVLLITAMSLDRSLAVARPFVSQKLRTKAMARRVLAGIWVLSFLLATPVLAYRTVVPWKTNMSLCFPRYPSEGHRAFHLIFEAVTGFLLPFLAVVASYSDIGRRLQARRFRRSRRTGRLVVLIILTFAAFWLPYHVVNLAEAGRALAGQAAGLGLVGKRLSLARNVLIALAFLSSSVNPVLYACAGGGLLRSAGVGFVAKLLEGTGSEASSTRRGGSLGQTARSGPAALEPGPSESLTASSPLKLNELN", "assay": "FLIPR calcium release assay (LTB4-induced calcium mobilization)", "assay_type": "cell-based", "details": "CHO-K1 cells expressing BLT1, 8 nM LTB4, n of 2", "protocol": "hBLT1/CHO-K1 Stable Xcell Line Preparations: Human BLT1 receptor DNA (National Center for Biotechnology Information (NCBI), Reference Sequence NM_181657) is synthesized and cloned into expression vector pcDNA3.1/Hygro(+) (Invitrogen V87020). The cDNA expression vector construct is transfected into Chinese hamster ovary (CHO-K1) cells (American Type Culture Collection (ATCC) CCL-61) using Lipofectamine 2000 (Invitrogen) as transfection reagent. Cells are cultured in selective Dulbecco's Modified Eagle Medium (DMEM) containing 200 μg/mL Hygromycin, 24 hours post transfection. Single clones are isolated and screened for BLT1 expression and function using Western Blot analysis and Fluorometric Imaging Plate Reader (FLIPR®) calcium release assay.\nChinese hamster ovary (CHO-K1) cells stably expressing the high-affinity (BLT1) LTB4 receptor are seeded at 10,000 cells/well in a 96 well plate (Corning) in growth medium containing DMEM/F-12 (3:1) w/o phenol red (Invitrogen), 5% fetal bovine serum (FBS) (Hyclone), 20 mM HEPES (Invitrogen), 200 μg/mL Hygromycin B (Invitrogen) and 40 μg/mL L-Proline (Sigma). The plate is incubated for 22-24 h at 37° C. 5% CO2 then growth medium is replaced with 50 μL/well of test medium containing Roswell Park Memorial Institute (RPMI) RPMI-1640 w/o phenol red, 20 mM HEPES (both from Invitrogen), and 0.2% w/v Bovine Serum Albumin (Sigma). […]"}}, "note": "Marks after values point to notes of the source that are not given here.", "data": [{"smiles": "CCCc1c(NC(=O)CC(C)(C)C(=O)[O-])cccc1OCCCOc1cc(O)c(-c2ccc(F)cc2)cc1CC.[Na+]", "note": "[Example 2, Sodium 4-[[3-[3-[2-ethyl-4-(4-fluorophenyl)-5-hydroxy-phenoxy]propoxy]-2-propyl-phenyl]amino]-2,2-dimethyl-4-oxo-butanoate]", "values": [{"measurement": "Lesion area", "setting": "[1]; 3 mg/kg BID oral gavage", "result": 23700, "unit": "µm²"}, {"measurement": "Macrophage area vs. vehicle", "setting": "[1]; 3 mg/kg BID, p < 0.02", "result": "−65", "unit": "%*"}, {"measurement": "Lesion area vs. vehicle", "setting": "[1]; 3 mg/kg BID, p < 0.049", "result": "−53", "unit": "%*"}, {"measurement": "Cholesteryl ester vs. vehicle", "setting": "[1]; 3 mg/kg BID, p = NS", "result": "−8", "unit": "%"}, {"measurement": "Macrophage area (brown color)", "setting": "[1]; 3 mg/kg BID", "result": 6520, "unit": "µm²"}, {"measurement": "reduction of lesion area compared to vehicle", "setting": "[1]; 3 mg/kg b.i.d.", "result": 53, "unit": "%"}, {"measurement": "Lesion area", "setting": "[1]; 10 mg/kg BID oral gavage", "result": 21200, "unit": "µm²"}, {"measurement": "Macrophage area vs. vehicle", "setting": "[1]; 10 mg/kg BID, p < 0.002", "result": "−84", "unit": "%*"}, {"measurement": "Lesion area vs. vehicle", "setting": "[1]; 10 mg/kg BID, p < 0.034", "result": "−58", "unit": "%*"}, {"measurement": "Cholesteryl ester vs. vehicle", "setting": "[1]; 10 mg/kg BID, p < 0.09", "result": "−18", "unit": "%"}, {"measurement": "Macrophage area (brown color)", "setting": "[1]; 10 mg/kg BID", "result": 2860, "unit": "µm²"}, {"measurement": "reduction of BCA cholesteryl ester (CE) content compared to vehicle", "setting": "[1]; 10 mg/kg b.i.d., p<0.09", "result": 18, "unit": "%"}, {"measurement": "reduction of lesion area compared to vehicle", "setting": "[1]; 10 mg/kg b.i.d.", "result": 58, "unit": "%"}, {"measurement": "Lesion area", "setting": "[1]; 30 mg/kg BID oral gavage", "result": 17100, "unit": "µm²"}, {"measurement": "Lesion area vs. vehicle", "setting": "[1]; 30 mg/kg BID, p < 0.017", "result": "−66", "unit": "%*"}, {"measurement": "Cholesteryl ester vs. vehicle", "setting": "[1]; 30 mg/kg BID, p < 0.04", "result": "−23", "unit": "%*"}, {"measurement": "Macrophage area vs. vehicle", "setting": "[1]; 30 mg/kg BID, p < 0.09", "result": "−54", "unit": "%"}, {"measurement": "Macrophage area (brown color)", "setting": "[1]; 30 mg/kg BID", "result": 8520, "unit": "µm²"}, {"measurement": "reduction of BCA cholesteryl ester (CE) content compared to vehicle", "setting": "[1]; 30 mg/kg b.i.d., p<0.04", "result": 23, "unit": "%"}, {"measurement": "reduction of lesion area compared to vehicle", "setting": "[1]; 30 mg/kg oral b.i.d., p<0.017", "result": 66, "unit": "%"}, {"measurement": "Cholesteryl ester", "setting": "[1]; 3 mg/kg BID", "result": 17.95, "unit": "nmol"}, {"measurement": "Cholesteryl ester", "setting": "[1]; 10 mg/kg BID", "result": 16.97, "unit": "nmol"}, {"measurement": "Cholesteryl ester", "setting": "[1]; 30 mg/kg BID", "result": 14.51, "unit": "nmol"}, {"measurement": "Kb", "setting": "[2]; read-out: inhibition of LTB4-induced calcium mobilization Kb", "result": 0.98, "unit": "nM"}, {"measurement": "IC50", "setting": "[2]; read-out: inhibition of LTB4-induced calcium mobilization relative IC50", "result": 6.48, "unit": "nM"}]}]}
